Measured values taken from PMC13316043, “Structural basis of NSD2 degradation via targeted recruitment of SCF-FBXO22” (Nature Communications, 2026).

How the values were obtained:
[1] = biological target: T1, NSD2 (long and short forms) (Homo sapiens, UniProt O96028); test: Western blot of NSD2 in HEK293T cells; assay type: cell-based; conditions: 10 µM, 6 hrs, vs DMSO
T1 sequence (O96028 211-350 limits assumed): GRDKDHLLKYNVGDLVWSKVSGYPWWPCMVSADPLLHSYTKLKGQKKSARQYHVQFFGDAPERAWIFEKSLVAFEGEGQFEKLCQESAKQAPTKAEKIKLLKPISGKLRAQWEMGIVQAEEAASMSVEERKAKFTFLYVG
Method: (§1) HEK293T and U2OS were obtained from ATCC and cultured in high-glucose-containing Dulbecco’s Modified Eagle’s Medium (DMEM; Gibco; cat. #11995) supplemented with 10% fetal bovine serum (VWR) and 1% penicillin/streptomycin (Gibco). Cells were treated with either UNC10415667, UNC12149, UNC12567, hemin (Sigma; cat. #H9039), or DMSO control for the indicated times and analyzed by western blot using standard procedures. Briefly, cells were lysed on ice for 15 min in NETN lysis buffer (20 mM Tris pH 8.0, 100 mM NaCl, 0.5 mM EDTA, 0.5% NP40) supplemented with 10 µg/mL aprotinin, 10 µg/mL leupeptin, 10 µg/mL pepstatin A, 1 mM sodium orthovanadate, 1 mM sodium fluoride, and 1 mM AEBSF (4-[two aminoethyl] benzenesulfonyl fluoride). Cell lysates were centrifuged at 20,000×g in a benchtop microcentrifuge at 4 °C for 10 min. Protein concentration was determined by Bradford assay (Bio-Rad; cat. #5000006). Protein concentration was normalized using Laemmli buffer. Samples were heated for 5 min at 95°C in a dry water-bath. Samples were separated on TGX stain free gels (Bio-Rad) transferred to nitrocellulose membrane and blocked in 5% non-fat dry milk (Biorad; cat. #1706404) diluted in 1x TBS-T (137 mM NaCl, 2.7 mM KCl, 25 mM Tris pH 7.6, 1% Tween-20). Primary antibody incubations (Anti-NSD2 (Abcam; Cat# ab75359; Lot# 1093214-1; 1:1000 dilution), Anti-BACH1 (Fortis Life Sciences; Cat# A303-805A; Lot# 1; 1:1000 dilution), and Anti-GAPDH (Santa Cruz Biotechnology; Cat# sc-47724; Lot# C1023; 1:1000 dilution)) were performed overnight at 4 °C. Secondary antibodies (Peroxidase AffiniPure Goat Anti-Rabbit IgG (H + L) (Jackson Immuno; Cat# 111-035-003; 1:5000 dilution) and Peroxidase AffiniPure Goat Anti-Mouse IgG (H + L) (Jackson Immuno; Cat# 115-035-003; 1:5000 dilution)) were incubated for 1 h at room temperature. Blots were developed by chemiluminescence using Pierce ECL (Thermo Fisher Scientific; cat. #32106).

[2] = system: FBXO22-NSD2 PWWP1 ternary complex; test: Size-exclusion chromatography to monitor ternary complex formation; assay type: binding, human
Method: Formation of the SCF^FBXO22-UNC10088-NSD2 PWWP1 and SCF^FBXO22-UNC10415667-NSD2 PWWP1 ternary complexes was performed by incubating SKP1-FBXO22, CUL1-RBX1, NSD2 PWWP1, and UNC10088 or UNC10415667 at a 1:1:1:1 molar ratio for 4 h on ice. The SCF^FBXO22-UNC10088-NSD2 PWWP1-BACH1 BTB ternary complex was formed by incubating SKP1-FBXO22, CUL1-RBX1, NSD2 PWWP1, UNC10088, and BACH1 BTB at a 1:1:1:1:1.5 molar ratio for 1 h on ice. The incubated sample was loaded onto a Superdex 200 Increase SD200 column (Cytiva), equilibrated with 20 mM HEPES pH 8, 200 mM NaCl, 1 mM DTT, for size-exclusion chromatography, and fractions containing all subunits of the SCF^FBXO22-Degrader-NSD2 PWWP1 complex were pooled and concentrated. The SCF^FBXO22-UNC10088-NSD2 PWWP1, SCF^FBXO22-UNC10415667-NSD2 PWWP1, and SCF^FBXO22-UNC10088-NSD2 PWWP1-BACH1 BTB complexes were concentrated to 33 µM, 10.9 µM, and 4.1 µM, respectively, and flash frozen. […] In contrast, only the PWWP1 and BTB domains of NSD2 and BACH1, respectively, were used.
FBXO22 WT and variants were incubated on ice with NSD2 PWWP1 and either UNC10088 or UNC10415667 at 5 µM. After 1 h, the samples were centrifuged at 16,060 x g for 10 min at 4 °C. Each sample was examined for C326- and compound-dependent complex formation by comparing the SEC chromatograms and Coomassie-stained SDS-PAGE gels. […] These experiments were performed using a Superdex 200 Increase SD200 column (Cytiva) and 20 mM HEPES pH 8, 200 mM NaCl, 1 mM DTT.

BACH1 = test: Western blot of BACH1 in HEK293T cells; assay type: cell-based, human; conditions: for BACH1 levels by immunoblot: 10 µM, 6 hrs
Method: as §1

FBXO22 FIST domain = test: Differential scanning fluorimetry (DSF); assay type: binding, human; conditions: vs DMSO
Method: A total of 9.5 µL of the master mix containing FBXO22 FIST WT or variants, SYPRO Orange Dye (Invitrogen), and DSF buffer (20 mM Tris 7.5, 150 mM NaCl, and 1 mM TCEP) were added to a 384-well qPCR plate (Genesee Scientific). 0.5 µL of the compound in DMSO was added to achieve a final concentration of 15 µM of the protein and 15× SYPRO Orange. The DSF assay plate was covered and incubated on an orbital shaker at room temperature for 30 min. The DSF assay was performed using the ViiA 7 Real-Time PCR System (Applied Biosystems). The plate was heated from 25°C to 95°C with a rate of 0.033°C/second. The raw fluorescence value was analyzed using the Protein Thermal Shift Software (Applied Biosystems, v1.4) to obtain the Tm. The graph was generated using GraphPad Prism (v 10.4.1).

Compound	NSD2 levels by immunoblot [1]	ternary complex formation between FBXO22 and NSD2 PWWP1 by SEC [2]	BACH1 levels by immunoblot (BACH1)	change in melting temperature (Tm) of WT FBXO22 FIST (FBXO22 FIST domain)	BACH1 and NSD2 levels upon co-treatment with Hemin (BACH1; 10 µM UNC10415667 and 20 µM Hemin, 6 h)	change in melting temperature (Tm) of FBXO22 FIST C326A (FBXO22 FIST domain; C326A variant)
O=C1COc2cc(C(=O)N(Cc3ccc(C(=O)Nc4ccc5c(c4)CCN(C(=O)CCCCC(O)S(=O)(=O)O)C5)cc3)C3CC3)ccc2N1 (stereo not shown) [UNC10088]	degradation of NSD2	co-migrated together	remained constant	stabilize WT FBXO22 FIST	–	–
O=Cc1ccc(C(=O)N2CCc3cc(NC(=O)c4ccc(CN(C(=O)c5ccc6c(c5)OCC(=O)N6)C5CC5)cc4)ccc3C2)cc1 [UNC10415667]	completely degraded	stable complex	unchanged	significant increase	both BACH1 and NSD2 were degraded	negligible shift
